Experimental data published in ChEMBL document CHEMBL1201862, “PubChem BioAssay data set” (2004).
Where a name gives a salt, the structure may show the parent alone.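 Values below derive from 48-hour exposures of cells grown in 96-well plates, with endpoints linearly interpolated between the two concentrations bracketing the appropriate inhibition level. GI50 = concentration required for 50% inhibition of growth.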 Active and inactive are the calls of the source. Rule as the data show it: active = GI50 up to about 1.1 µM and inactive = higher.

Legend:
Assay in all cases: growth of human tumour cells (NCI), 48 h
CCRF-CEM = tested on: CCRF-CEM
SNB-75 = tested on: SNB-75
SF-268 = tested on: SF-268
OVCAR-3 = tested on: OVCAR-3
SK-OV-3 = tested on: SK-OV-3
NCI-H226 = tested on: NCI-H226
SN12C = tested on: SN12C
MOLT-4 = tested on: MOLT-4
A498 = tested on: A498
KM12 = tested on: KM12
786-0 = tested on: 786-0
SR = tested on: SR
A549 = tested on: A549
DU-145 = tested on: DU-145
MDA-N = tested on: MDA-N
PC-3 = tested on: PC-3
T47D = tested on: T47D
UACC-257 = tested on: UACC-257
SK-MEL-2 = tested on: SK-MEL-2
HCT-116 = tested on: HCT-116

Measured: GI50

O=P(O)(O)CN1CCNCCN(CP(=O)(O)O)CCN(CP(=O)(O)O)CCNCC1
inactive: CCRF-CEM > 100 µM | SNB-75 24.4 µM | SF-268 > 100000 µM | OVCAR-3 > 100 µM | SK-OV-3 > 100 µM | NCI-H226 9.48 µM | SN12C > 100 µM | MOLT-4 > 100 µM | A498 93.5 µM | KM12 55200 µM | 786-0 > 100 µM | SR > 100 µM | A549 42600 µM | DU-145 > 100 µM | MDA-N 26400 µM | PC-3 > 100 µM | T47D 48300 µM | UACC-257 > 100 µM | SK-MEL-2 99300 µM | HCT-116 54600 µM

Cc1ccc(CCCCCOc2ccc(C3=NCCO3)cc2)s1
inactive: CCRF-CEM > 100 µM | SNB-75 > 100 µM | SF-268 > 100 µM | OVCAR-3 > 100 µM | SK-OV-3 > 100 µM | NCI-H226 > 100 µM | SN12C > 100 µM | MOLT-4 > 100 µM | A498 1.81 µM | KM12 > 100 µM | 786-0 > 100 µM | SR 2.84 µM | A549 > 100 µM | DU-145 > 100 µM | MDA-N 5.68 µM | PC-3 > 100 µM | T47D > 100 µM | UACC-257 > 100 µM | SK-MEL-2 > 100 µM | HCT-116 > 100 µM

CN(C)CCOC(=O)COc1ccc(Cl)cc1 [CENTROPHENOXINE HYDROCHLORIDE]
inactive: CCRF-CEM > 100 µM | SNB-75 52.8 µM | SF-268 > 100 µM | OVCAR-3 > 100 µM | SK-OV-3 > 100 µM | NCI-H226 > 100 µM | SN12C > 100 µM | MOLT-4 > 100 µM | A498 98.6 µM | KM12 > 100 µM | 786-0 > 100 µM | SR > 100 µM | A549 > 100 µM | DU-145 > 100 µM | MDA-N > 100 µM | PC-3 > 100 µM | T47D > 100 µM | UACC-257 > 100 µM | SK-MEL-2 > 100 µM | HCT-116 > 100 µM

N#C/C(=C\c1ccccc1)C(=O)Nc1nnc(-c2ccccc2)o1
inactive: CCRF-CEM 17.9 µM | SNB-75 48.8 µM | SF-268 47.2 µM | OVCAR-3 14.8 µM | SK-OV-3 31.8 µM | NCI-H226 44.9 µM | SN12C 36.7 µM | MOLT-4 33.1 µM | A498 27.3 µM | KM12 41.8 µM | 786-0 53 µM | SR 25.6 µM | A549 34.1 µM | DU-145 50.4 µM | MDA-N 35.4 µM | PC-3 42.1 µM | T47D 31.3 µM | UACC-257 25.7 µM | SK-MEL-2 52.1 µM | HCT-116 33.3 µM

CC1(C)S[C@@H]2[C@H](NC(=O)C3(N)CCCCC3)C(=O)N2[C@H]1C(=O)O [CYCLACILLIN]
inactive: CCRF-CEM > 100 µM | SNB-75 > 100 µM | SF-268 > 100 µM | OVCAR-3 > 100 µM | SK-OV-3 > 100 µM | NCI-H226 > 100 µM | SN12C > 100 µM | MOLT-4 > 100 µM | A498 > 100 µM | KM12 > 100 µM | 786-0 > 100 µM | SR > 100 µM | A549 > 100 µM | DU-145 > 100 µM | MDA-N > 100 µM | PC-3 > 100 µM | T47D > 100 µM | UACC-257 > 100 µM | SK-MEL-2 > 100 µM | HCT-116 > 100 µM

CCC(=O)/C=C/c1ccccc1
inactive: CCRF-CEM 37.2 µM | SNB-75 > 100 µM | SF-268 94 µM | OVCAR-3 67.6 µM | SK-OV-3 31.3 µM | NCI-H226 > 100 µM | SN12C 43.2 µM | MOLT-4 26 µM | A498 48.9 µM | KM12 14.6 µM | 786-0 46 µM | SR 42.8 µM | A549 > 100 µM | DU-145 > 100 µM | MDA-N 40.6 µM | PC-3 > 100 µM | T47D > 100 µM | UACC-257 72.6 µM | SK-MEL-2 > 100 µM | HCT-116 31.3 µM

CC(=O)NC1=CC(=O)C=C(Cl)C1=O
inactive: CCRF-CEM 22.9 µM | SNB-75 > 100 µM | SF-268 > 100 µM | OVCAR-3 > 100 µM | SK-OV-3 > 100 µM | NCI-H226 > 100 µM | SN12C > 100 µM | MOLT-4 22.2 µM | A498 > 100 µM | KM12 > 100 µM | 786-0 > 100 µM | SR 22.4 µM | A549 > 100 µM | DU-145 > 100 µM | MDA-N 16.8 µM | PC-3 > 100 µM | T47D > 100 µM | UACC-257 54.1 µM | SK-MEL-2 59.8 µM | HCT-116 > 100 µM

O=S(=O)(Nc1nc2ccccc2nc1Nc1ccc2ccccc2c1)c1ccccc1
inactive: CCRF-CEM 20 µM | SNB-75 26.5 µM | SF-268 17.9 µM | OVCAR-3 1.87 µM | SK-OV-3 7.78 µM | NCI-H226 16.7 µM | SN12C 10.4 µM | MOLT-4 5.24 µM | A498 28.3 µM | KM12 6 µM | 786-0 20.3 µM | SR 13.2 µM | A549 5.96 µM | DU-145 20.3 µM | MDA-N 19.5 µM | PC-3 3.3 µM | T47D 5.68 µM | UACC-257 26.1 µM | SK-MEL-2 3.19 µM | HCT-116 7.8 µM

CCOC(=O)c1nc2cc(N3CCOCC3)c(F)cc2[nH]c1=O
inactive: CCRF-CEM 91.8 µM | SNB-75 52 µM | SF-268 > 100 µM | OVCAR-3 > 100 µM | SK-OV-3 > 100 µM | NCI-H226 20.3 µM | SN12C > 100 µM | MOLT-4 > 100 µM | A498 > 100 µM | KM12 > 100 µM | 786-0 > 100 µM | SR 54.2 µM | A549 > 100 µM | DU-145 > 100 µM | MDA-N > 100 µM | PC-3 > 100 µM | T47D > 100 µM | UACC-257 > 100 µM | SK-MEL-2 > 100 µM | HCT-116 > 100 µM

CCCCCCCC/C=C1\CCC(CN2CCOCC2)C1=O (stereo unspecified)
inactive: CCRF-CEM 2.79 µM | SNB-75 2.61 µM | SF-268 9.35 µM | OVCAR-3 7.5 µM | SK-OV-3 19.9 µM | NCI-H226 17.4 µM | SN12C 5.7 µM | MOLT-4 2.13 µM | A498 15.8 µM | KM12 3.41 µM | 786-0 1.68 µM | SR 2.13 µM | A549 15 µM | DU-145 5.3 µM | MDA-N 9.55 µM | PC-3 11.2 µM | T47D 1.85 µM | UACC-257 8.67 µM | SK-MEL-2 14.8 µM | HCT-116 3.53 µM

CSc1nc(SC)c2c(C)cn(COCCOC(=O)c3ccccc3)c2n1
inactive: CCRF-CEM 64.1 µM | SNB-75 50.2 µM | SF-268 > 100 µM | OVCAR-3 > 100 µM | SK-OV-3 24.3 µM | NCI-H226 > 100 µM | SN12C > 100 µM | MOLT-4 59.6 µM | A498 42.6 µM | KM12 > 100 µM | 786-0 > 100 µM | SR > 100 µM | A549 > 100 µM | DU-145 69.8 µM | MDA-N > 100 µM | PC-3 74.5 µM | T47D 32.8 µM | SK-MEL-2 > 100 µM | HCT-116 83 µM

O=[N+]([O-])c1cccc(-c2cn3c(n2)Cc2ccccc2C3)c1
inactive: CCRF-CEM 15.9 µM | SNB-75 > 100 µM | SF-268 > 100 µM | SK-OV-3 > 100 µM | NCI-H226 > 100 µM | SN12C > 100 µM | MOLT-4 9.68 µM | A498 16.9 µM | KM12 24.9 µM | 786-0 > 100 µM | SR 51.4 µM | A549 64.1 µM | DU-145 > 100 µM | MDA-N 50.8 µM | PC-3 77.4 µM | T47D 17.1 µM | UACC-257 87.3 µM | SK-MEL-2 34.9 µM | HCT-116 23.9 µM

Cc1cc(S(=O)(=O)Nc2nc(-c3ccccn3)n[nH]2)c(S)cc1Cl
inactive: SNB-75 28.1 µM | SF-268 17.7 µM | OVCAR-3 17.2 µM | SK-OV-3 12.9 µM | NCI-H226 12.3 µM | SN12C 36.2 µM | MOLT-4 22.7 µM | A498 16.9 µM | KM12 20.4 µM | 786-0 12.1 µM | SR 24.3 µM | A549 12.9 µM | DU-145 19.2 µM | MDA-N 42.2 µM | PC-3 31.1 µM | T47D 15.3 µM | UACC-257 30.9 µM | SK-MEL-2 10.3 µM | HCT-116 16.1 µM

CCC1CC(=O)N(SCC(N)C(=O)O)C1=O (stereo unspecified)
inactive: CCRF-CEM > 100 µM | SNB-75 > 100 µM | SF-268 > 100 µM | OVCAR-3 > 100 µM | SK-OV-3 > 100 µM | NCI-H226 > 100 µM | SN12C > 100 µM | A498 > 100 µM | KM12 > 100 µM | 786-0 > 100 µM | SR > 100 µM | A549 > 100 µM | DU-145 > 100 µM | MDA-N > 100 µM | PC-3 > 100 µM | T47D > 100 µM | UACC-257 > 100 µM | SK-MEL-2 > 100 µM | HCT-116 > 100 µM
